In ChEMBL document CHEMBL5518195, “N-(Heteroaryl)thiophene sulfonamides as angiotensin AT2 receptor ligands” (Eur J Med Chem, 2024):

Tests used:
[1] = Apparent permeability across apical to basal side in human Caco-2 cells at 5 uM measured for 15 to 60 mins by LC-MS/MS analysis; type: ADME, cell-based; conditions: time 15-60 min
[2] = Efflux ratio of apparent permeability in human Caco-2 cells at 5 uM measured for 15 to 60 mins by LC-MS/MS analysis; type: ADME, cell-based; conditions: time 15-60 min
[3] = Stability in human liver microsomes assessed as half life at 1 uM in presence of NADPH by LC-MS/MS analysis; type: ADME, Microsome
[4] = Stability in mouse liver microsomes assessed as half life at 1 uM in presence of NADPH by LC-MS/MS analysis; type: ADME, Microsome; conditions: time 60 min
[5] = target: T1, Type-2 angiotensin II receptor (Homo sapiens, UniProt P50052); test: Displacement of [125I][Sar1 Ile8]-angiotensin II binding to human AT2R expressed in HEK293 cells; type: cell-based
T1 sequence (P50052 whole entry): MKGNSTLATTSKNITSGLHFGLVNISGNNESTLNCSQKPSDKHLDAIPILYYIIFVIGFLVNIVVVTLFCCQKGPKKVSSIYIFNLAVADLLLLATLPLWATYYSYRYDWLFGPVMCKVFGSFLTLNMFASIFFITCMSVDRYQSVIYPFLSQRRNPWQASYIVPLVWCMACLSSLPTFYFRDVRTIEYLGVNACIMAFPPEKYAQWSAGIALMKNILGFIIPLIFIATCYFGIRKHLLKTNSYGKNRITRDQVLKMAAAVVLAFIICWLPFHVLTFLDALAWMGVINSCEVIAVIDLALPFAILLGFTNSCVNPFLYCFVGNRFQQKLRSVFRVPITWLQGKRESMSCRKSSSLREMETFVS

[6] = Stability in human hepatocytes assessed as half life at 1 uM by LC-MS/MS analysis; type: ADME, cell-based, Hepatocyte
Thoracic aorta = test: Induction of vasorelaxation in pre-contracted thoracic aorta of FVB/N mouse; type: functional, tissue-based
[7] = target: T2, Type-1 angiotensin II receptor (Homo sapiens, UniProt P30556); test: Inhibition of [125I][Sar1 Ile8]-angiotensin II binding to human AT1R expressed in HEK293 cells; type: cell-based
T2 sequence (P30556 whole entry): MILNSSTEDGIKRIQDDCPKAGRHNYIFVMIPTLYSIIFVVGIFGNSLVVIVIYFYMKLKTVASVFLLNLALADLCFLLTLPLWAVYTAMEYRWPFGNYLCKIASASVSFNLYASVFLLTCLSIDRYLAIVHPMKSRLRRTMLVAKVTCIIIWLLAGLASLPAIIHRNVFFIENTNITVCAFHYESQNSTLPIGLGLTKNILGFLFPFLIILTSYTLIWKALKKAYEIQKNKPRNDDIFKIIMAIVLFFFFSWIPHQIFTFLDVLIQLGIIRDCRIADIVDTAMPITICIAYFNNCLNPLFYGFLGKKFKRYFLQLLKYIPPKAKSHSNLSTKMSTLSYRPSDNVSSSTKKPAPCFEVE

Papp A→B at 5 µM [1] [×10⁻⁶ cm/s]	efflux ratio at 5 µM [2]	half-life at 1 µM [3] [min]	half-life at 1 µM [4] [min]	Ki [5] [nM]	half-life at 1 µM [6] [min]	Ki [7] [nM]	Compound	Activity (Thoracic aorta)
1.8	32						COc1ccc2c(c1OCc1ccccc1)C[C@@H](C(=O)O)N(C(=O)C(c1ccccc1)c1ccccc1)C2 [OLODANRIGAN]	
		61	210	650			CC(C)Cc1cc(-c2cccc(Cn3ccnc3)c2)c(S(=O)(=O)Nc2nccs2)s1	
		6.7	10	300			CC(C)Cc1cc(-c2cccc(Cn3ccnc3)c2)c(S(=O)(=O)Nc2nccc(C(F)(F)F)n2)s1.O=C(O)C(F)(F)F	
		1.2	2.3	4.3			CC(C)Cc1cc(-c2cccc(C(=O)Cn3ccnc3C(C)(C)C)c2)c(S(=O)(=O)Nc2ncc(C#N)cn2)s1.O=C(O)C(F)(F)F	
		6.2	11	3.3			CC(C)Cc1cc(-c2cccc(C(=O)Cn3ccnc3C(C)(C)C)c2)c(S(=O)(=O)Nc2ncc(Cl)cn2)s1.O=C(O)C(F)(F)F	
3.4							CCCCOC(=O)NS(=O)(=O)c1sc(CC(C)C)cc1-c1cccc(Cn2ccnc2)c1	
		43	36	1100			CC(C)Cc1cc(-c2cccc(Cn3ccnc3)c2)c(S(=O)(=O)Nc2nccc(C(N)=O)n2)s1.O=C(O)C(F)(F)F	
4.9	77	20	17	4.9	77	> 3000	CC(C)Cc1cc(-c2cccc(C(=O)Cn3ccnc3C(C)(C)C)c2)c(S(=O)(=O)Nc2ncccn2)s1	Dose-Dependent Effect
		4.8	12	2			CC(C)Cc1cc(-c2cccc(C(=O)Cn3ccnc3C(C)(C)C)c2)c(S(=O)(=O)Nc2ncc(C(F)(F)F)cn2)s1	
		56	480	800			CC(C)Cc1cc(-c2cccc(Cn3ccnc3)c2)c(S(=O)(=O)Nc2nc3ccccc3s2)s1.O=C(O)C(F)(F)F	
		1.2	2.3	600			CC(C)Cc1cc(-c2cccc(C(=O)Cn3ccnc3C(C)(C)C)c2)c(S(=O)(=O)Nc2ccc(C#N)cc2)s1	
		14	160	42			CC(C)Cc1cc(-c2cccc(Cn3ccnc3)c2)c(S(=O)(=O)Nc2ncc(Br)cn2)s1	
		12	37	100			CC(C)Cc1cc(-c2cccc(Cn3ccnc3)c2)c(S(=O)(=O)Nc2nccc(C#N)n2)s1.O=C(O)C(F)(F)F	
		6.7	6.4	96			CC(C)Cc1cc(-c2cccc(C(=O)Cn3ccnc3C(C)(C)C)c2)c(S(=O)(=O)Nc2nccs2)s1	
		4.3	11	1.5			CC(C)Cc1cc(-c2cccc(C(=O)Cn3ccnc3C(C)(C)C)c2)c(S(=O)(=O)Nc2ncc(Br)cn2)s1	
		16	21	1.7			CC(C)Cc1cc(-c2cccc(C(=O)Cn3ccnc3C(C)(C)C)c2)c(S(=O)(=O)Nc2ncc(F)cn2)s1.O=C(O)C(F)(F)F	
		2.3	3.6	29			CC(C)Cc1cc(-c2cccc(C(=O)Cn3ccnc3C(C)(C)C)c2)c(S(=O)(=O)Nc2ccc(C(F)(F)F)cn2)s1	
		6.6	23	300			Cc1nc(NS(=O)(=O)c2sc(CC(C)C)cc2-c2cccc(Cn3ccnc3)c2)ncc1Cl	
